Data reported in US20090270395A1, “EP4 Receptor Agonist, Compositions and Methods Thereof” (priority 2005, published 2009).

Assays:
[1] = ocular tolerability in rabbits, topical ophthalmic solution; type: in vivo, rabbits (New Zealand white rabbits)
Protocol: Drug concentrations are expressed in terms of the active ingredient (base). The compounds of this invention are dissolved in a suitable ophthalmic solution (e.g., 0.5% Polysorbate-80, 0.02% benzalkonium chloride, 0.1% EDTA, 4.5% mannitol in 5 mM citrate) at 22, 2.2 and 0.22 μM for rabbit study and 111, 33, 11, and 1.1 μM for monkey studies. Drug or vehicle aliquots (25 ul) are administered topically unilaterally or bilaterally. In unilateral applications, the contralateral eyes receive an equal volume of vehicle. Proparacaine (0.5%) is applied to the cornea prior to tonometry to minimize discomfort. Intraocular pressure (IOP) is recorded using a pneumatic tonometer (Alcon Applanation Pneumatonograph) or equivalent.

[2] = ocular tolerability in cynomolgus monkeys; type: in vivo; conditions: compared to compounds disclosed in WO 2004/085430 (Example 2)
TRAB-11 cells = assay: effect on intracellular cAMP in TRAB-11 cells; type: cell-based, rat
Protocol: (§1) RCT-1 and RCT-3 are clonal cell lines immortalized by SV-40 large T antigen from cells released from fetal rat calvair by a combination collagenase/hyaluronidase digestion. RCT-1 cells, derived from cells released during the first 10 minutes of digestion (fraction I), are cultured in RPMI 1640 medium (BRL) with 10% fetal bovine serum and 0.4 mg/ml G418 (BRL). These cells differentiate and express osteoblastic features upon retinoic acid treatment. RCT-3 cells, immortalized from osteoblast-enriched fraction III cells, are cultured in F-12 medium (BRL) with 5% Fetal bovine serum and 0.4 mg/ml G418. TRAB-11 cells are also immortalized by SV40 large T antigen from adult rat tibia and are cultured in RPMI 1640 medium with 10% FBS and 0.4 mg/ml G418. ROS 17/2.8 rat osteosarcoma cells are cultured in F-12 containing 5% FBS. Osteoblast-enriched (fraction III) primary fetal rat calvaria cells are obtained by collagenase/hyaluronidase digestion of calvariae of 19 day-old rat fetuses. See Rodan et al., Growth stimulation of rat calvaria osteoblastic cells by acidic FGF, Endocrinology, 121, 1919-1923 (1987), which is incorporated by reference herein in its entirety. Cells are released during 30-50 minutes digestion (fraction […]) and are cultured in F-12 medium containing 5% FBS. […]

RCT-3 cells = assay: effect on intracellular cAMP in RCT-3 cells; type: cell-based, rat
Protocol: as §1

EP2 mRNA in RP-1 cells = assay: EP2 mRNA expression (Northern blot) in RP-1 cells; type: cell-based, rat
Protocol: (§2) RP-1 periosteal cells are spontaneously immortalized from primary cultures of periosteal cells from tibae of 4-week old Sprague-Dawley rats and are cultured in DMEM (BRL, Gaithersburg, Md.) with 10% fetal bovine serum (JRH Biosciences, Lenexa, Kans.).
(§3) Total RNA is extracted from the tibial metaphysis or diaphysis and calvaria using a guanidinium isothiocyanate-phenol-chloroform method after pulverizing frozen bone samples by a tissue homogenizer. See P. Chomczynski et al., Single-step method of RNA isolation by acid guanidium thiocyanate-phenol-chloroform extraction., Analyt Biochem, 162, 156-159 (1987), which is incorporated by reference herein in its entirety. RNA samples ([…]) are separated on 0.9% agarose/formaldehyde gels and transferred onto nylon membranes (Boehringer Mannheim, Germany). Membranes are prehybridized in Hybrisol I (Oncor, Gaithersburg, Md.) and 0.5 mg/ml sonicated salmon sperm DNA (Boehringer) at 42° C. for 3 hours and are hybridized at 42° C. with rat EP2 and mouse EP4 cDNA probes labeled with [^32P]-dCTP (Amersham, Buckinghamshire, UK) by random priming using the rediprime kit (Amersham). After hybridization, membranes are washed 4 times in 2×SSC+0.1% SDS at room temperature for a total of 1 hour and once with 0.2×SSC+0.1% SDS at 55° C. for 1 hour and then exposed to Kodak XAR 2 film at −70° C. using intensifying screens. […]

[3] = tested on: ROS 17/2.8 rat osteosarcoma cells; assay: effect on intracellular cAMP in ROS 17/2.8 cells; type: cell-based
Protocol: as §1

EP4 mRNA in bone tissue = assay: EP4 mRNA levels in bone tissue of rats after systemic injection (Northern blot); type: in vivo, rat; conditions: five-week-old male rats; 3-6 mg/Kg injected
Source text: For mRNA localization experiments, 5-week old Sprague-Dawley rats (Charles River) are euthanized by CO2, their tibiae and calvariae are excised, cleaned of soft tissues and frozen immediately in liquid nitrogen. […] Animals are euthanized at several time points post-injection and their tibiae and calvariae, as well as samples from lung and kidney tissues are frozen in liquid nitrogen.
as §3, with “(Amersham).” for “(Amersham). After hybridization, membranes are washed 4 times in 2×SSC+0.1% SDS at room temperature for a total of 1 hour and once with 0.2×SSC+0.1% SDS at 55° C. for 1 hour and then exposed to Kodak XAR 2 film at −70° C. using intensifying screens.”

EP2 mRNA in bone tissue = EP2 mRNA in bone tissue of rats after systemic injection (Northern blot); type: in vivo, rat; conditions: 3-6 mg/Kg injected
Protocol: (§4) For mRNA localization experiments, 5-week old Sprague-Dawley rats (Charles River) are euthanized by CO2, their tibiae and calvariae are excised, cleaned of soft tissues and frozen immediately in liquid nitrogen. For EP4 regulation experiments, 6-week old rats are given a single injection of either vehicle (7% ethanol in sterile water) or an anabolic dose of PGE2 (Cayman Chemical, Ann Arbor, Mich.), 3-6 mg/kg in the same vehicle) intraperitoneally. Animals are euthanized at several time points post-injection and their tibiae and calvariae, as well as samples from lung and kidney tissues are frozen in liquid nitrogen.
Total RNA is extracted from the tibial metaphysis or diaphysis and calvaria using a guanidinium isothiocyanate-phenol-chloroform method after pulverizing frozen bone samples by a tissue homogenizer. See P. Chomczynski et al., Single-step method of RNA isolation by acid guanidium thiocyanate-phenol-chloroform extraction., Analyt Biochem, 162, 156-159 (1987), which is incorporated by reference herein in its entirety. RNA samples ([…]) are separated on 0.9% agarose/formaldehyde gels and transferred onto nylon membranes (Boehringer Mannheim, Germany). […]

EP4 mRNA in RCT-3 cells = assay: EP4 mRNA expression (Northern blot) in RCT-3 cells; type: cell-based, rat
Protocol: as §1

[4] = tested on: EP4 mRNA in RP-1 periosteal cells; assay: EP4 mRNA expression (Northern blot) in RP-1 periosteal cells; type: cell-based, rat; conditions: 10^−6 M
Protocol: as §2, §3

[5] = tested on: EP4 expression in bone marrow cells; assay: localization of EP4 mRNA expression in bone tissue by in situ hybridization; type: in vivo, rat; conditions: rats, single anabolic dose
Protocol: as §4
Frozen tibiae are sectioned coronally at […] thickness and sections are mounted on charged slides (Probe On Plus, Fisher Scientific, Springfield, N.J.) and are kept at −70° C. until hybridization. cRNA probes are labeled with ^35S-UTPgS (ICN, Costa Mesa, Calif.) using a Riboprobe II kit (Promega Madison, Wis.). Hybridization is performed overnight at 50° C. […]
In situ hybridization is used in order to localize cells expressing EP4 in bone. In control experiment (vehicle-injected) rats, low expression of EP4 is detected in bone marrow cells. […]

With `CC(C)OC(=O)c1ccc(CCN2C(=O)OCC[C@@H]2/C=C/[C@@H](O)C(F)(F)c2cccc(Br)c2)cc1` [Example 1, isopropyl 4-(2-{(4R)-4-[(1E,3R)-4-(3-bromophenyl)-4,4-difluoro-3-hydroxybut-1-en-1-yl]-2-oxo-1,3-oxazinan-3-yl}ethyl)benzoate] the ocular tolerability ([1]; rabbits, compared to compounds disclosed in WO 2004/085430 (Example 2)) was “improved ocular tolerability” and the ocular tolerability [2] was “improved ocular tolerability”.

In the case of `CC(C)OC(=O)c1ccc(CCN2C(=O)OCC[C@@H]2CC[C@@H](O)C(F)(F)c2cccc(Br)c2)cc1` [Example 3, isopropyl 4-(2-{(4S)-4-[(3R)-4-(3-bromophenyl)-4,4-difluoro-3-hydroxybutyl]-2-oxo-1,3-oxazinan-3-yl}ethyl)benzoate], the “drug treatment related ocular adverse effects (eye closure)” value ([1]; New Zealand white rabbits, single dose, topical, unilateral, 2.2 μM (25 μL) ophthalmic solution, vehicle panel-controlled) is reported as “very slight drug treatment related ocular adverse effects (eye closure)”.

With `CCCCC[C@H](O)/C=C/[C@H]1[C@H](O)CC(=O)[C@@H]1C/C=C\CCCC(=O)O` [PGE2] the “effect on intracellular cAMP” value (TRAB-11 cells) was “markedly induced”, the “effect on intracellular cAMP” value (RCT-3 cells) was “markedly induced” and the “EP2 mRNA expression before or after treatment” value (EP2 mRNA in RP-1 cells) was “not expressed”. For the same molecule, the “effect on intracellular cAMP” value [3] was “no effect”, the “effect on EP4 mRNA levels in the tibial diaphysis” value (EP4 mRNA in bone tissue) was “rapidly increased EP4 mRNA levels” and the “time of peak EP4 mRNA levels in the tibial diaphysis after injection” value (EP4 mRNA in bone tissue) was 2 h. The “induction of EP2 mRNA in bone tissue” value (EP2 mRNA in bone tissue) was “does not induce EP2 mRNA”, the “effect on EP4 mRNA levels” value (EP4 mRNA in RCT-3 cells) was “no effect” and the “effect on EP4 mRNA levels” value [4] was “rapidly increases EP4 mRNA levels”. The “time of peak EP4 mRNA levels after treatment” value [4] was 2 h and the “expression of EP4 in bone marrow cells” value [5] was “increased the expression of EP4 in bone marrow cells”.
